The record followed here is patent publication US7371811B2, “Schizophrenia associated genes, proteins and biallelic markers” (Serono Genetics Institute S.A., priority 1998, dated 2008).

In the test the test system is Male C57BL6 adult mice. Put plainly: Effect of sbg1 peptide on behavior of mice (locomotor and stereotypy movements). The settings on record: 50 μg peptide intraperitoneally in 200 μl saline, n=4/peptide, FIG. 18. It counts as in vivo. As to the method: In one example, the present inventors have tested sbg1 peptides by injection into mice. An sbg1 peptide comprising amino acid positions 124 to 153 of SEQ ID No 34 was injected peritoneally into adult mice as described herein in Example 7. […] Because the onset of stereotypy was variable, data are presented as the average of stereotypy for observations over the entire time period.
Animals: Male C57BL6 adult mice (approximately 6 weeks old)
Peptides: sbg1 peptide: • NH2-[…]-COOH (SEQ ID NO:232) • Control 1: NH2-[…]-COOH (SEQ ID NO:233) • Control 2: NH2-MHMKTILGPRLGLGE-COOH (SEQ ID NO:234)
Protocol: • 1. Inject mice intraperitoneally with 50 μg peptide in 200 μl sterile physiological saline (n=4/peptide). • 2. Place mice in clean empty cages containing no litter, and only a small test tube rack. The cages are covered with a plastic sheet to enable taking photographs and video-tracking. • 3. Observe behavior for one minute from t=5 min up to t=45 min, as indicated. Any locomoter or stereotypy movements were recorded as positive over 1 min intervals. Locomoter movements include climbing, and rearing while stereotypy movements include grooming and scratching. At the end of the experiment, the number of movements were added up for each animal.
Results: • 1. […]

Regarding “NH2-QPLERMWTCNYNQQKDQSCNHKEITSTKAE-COOH (H-QPLERMWTCNYNQQKDQSCNHKEITSTKAE-OH; cysteine pairing not given here; listed as Homo sapiens) [sbg1 peptide]”, where the note is “average movements at 5, 10, 15 min compared with 30, 35, 40, 45 min”, the “frequency of movements (locomotor activity) over the time course of the experiment” value is “decrease in the frequency of their movements”. Moreover, the “stereotypy (grooming and scratching movements)” value (observed t=5 to 45 min, effect most prominent during the last period) is recorded as “increased stereotypy”.
